Assay results published in patent publication US9169254B2, “Spiroimidazolone derivative” (Chugai Seiyaku Kabushiki Kaisha, priority 2009, dated 2015).

target: T1, human PTH1 receptor (Homo sapiens, UniProt Q03431); experiment: In vitro cAMP signal activity in HKRK-B7 cells (LLC-PK1 cells overexpressing the human PTH1 receptor); format: cell-based; details: HKRK-B7 cells; compound at 1×10^−3 M; cAMP produced as percentage of that produced by hPTH(1-34) at 100 nM
T1 sequence (Q03431 27-593): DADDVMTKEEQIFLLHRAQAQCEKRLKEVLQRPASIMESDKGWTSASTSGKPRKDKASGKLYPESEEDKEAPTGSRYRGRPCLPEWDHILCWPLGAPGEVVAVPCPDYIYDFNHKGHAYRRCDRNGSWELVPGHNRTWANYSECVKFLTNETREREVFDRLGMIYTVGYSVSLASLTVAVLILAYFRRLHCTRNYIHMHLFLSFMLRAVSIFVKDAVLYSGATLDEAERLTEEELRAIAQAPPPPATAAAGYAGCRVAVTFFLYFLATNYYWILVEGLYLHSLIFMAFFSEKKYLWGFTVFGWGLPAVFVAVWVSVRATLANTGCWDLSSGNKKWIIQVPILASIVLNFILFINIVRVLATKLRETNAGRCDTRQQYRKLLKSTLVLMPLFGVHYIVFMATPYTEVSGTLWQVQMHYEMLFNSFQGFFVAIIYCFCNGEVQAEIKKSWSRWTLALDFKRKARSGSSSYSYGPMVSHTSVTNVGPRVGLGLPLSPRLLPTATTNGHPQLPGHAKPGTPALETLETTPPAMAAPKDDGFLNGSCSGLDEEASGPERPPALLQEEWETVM

| SMILES | cAMP production activity (%) |
| --- | --- |
| Cc1cc(C(=O)N2CCC(C)(O)CC2)cc(C)c1/C=C/S(=O)(=O)N1CCC2(CC1)N=C(c1ccc(C(F)(F)F)c(Cl)c1)NC2=O [Compound 1188, 2-(3-chloro-4-trifluoromethyl-phenyl)-8-{(E)-2-[4-(4-hydroxy-4-methyl-piperidine-1-carbonyl)-2,6-dimethyl-phenyl]-ethenesulfonyl}-1,3,8-triaza-spiro[4.5]dec-1-en-4-one] | 99% |
| Cc1cc(C(=O)N2CCC(C)(O)CC2)cc(C)c1/C=C/S(=O)(=O)N1CCC2(CC1)N=C(c1ccc(S(F)(F)(F)(F)F)cc1)NC2=O [Compound 1189, 8-{(E)-2-[4-(4-hydroxy-4-methyl-piperidine-1-carbonyl)-2,6-dimethyl-phenyl]-ethenesulfonyl}-2-(4-pentafluorosulfanyl-phenyl)-1,3,8-triaza-spiro[4.5]dec-1-en-4-one] | 104% |
| Cc1cc(C(=O)N2CCC(C)(O)CC2)cc(C)c1/C=C/S(=O)(=O)N1CCC2(CC1)N=C(c1cccc(S(F)(F)(F)(F)F)c1)NC2=O [Compound 1190, 8-{(E)-2-[4-(4-hydroxy-4-methyl-piperidine-1-carbonyl)-2,6-dimethyl-phenyl]-ethenesulfonyl}-2-(3-pentafluorosulfanyl-phenyl)-1,3,8-triaza-spiro[4.5]dec-1-en-4-one] | 108% |
| Cc1cc(C(=O)N2CCC(C)(O)CC2)cc(C)c1/C=C/S(=O)(=O)N1CCC2(CC1)N=C(c1ccc(COc3cccc(C(F)(F)F)c3)cc1)NC2=O [Compound 1191, 8-{(E)-2-[4-(4-hydroxy-4-methyl-piperidine-1-carbonyl)-2,6-dimethyl-phenyl]-ethenesulfonyl}-2-[4-(3-trifluoromethyl-phenoxymethyl)-phenyl]-1,3,8-triaza-spiro[4.5]dec-1-en-4-one] | 66% |
| Cc1cc(C(=O)N2CCC(C)(O)CC2)cc(C)c1/C=C/S(=O)(=O)N1CCC2(CC1)N=C(c1ccc(F)c(C)c1C)NC2=O [Compound 1192, 2-(4-fluoro-2,3-dimethyl-phenyl)-8-{(E)-2-[4-(4-hydroxy-4-methyl-piperidine-1-carbonyl)-2,6-dimethyl-phenyl]-ethenesulfonyl}-1,3,8-triaza-spiro[4.5]dec-1-en-4-one] | 100% |
| Cc1cc(C2=NC3(CCN(S(=O)(=O)/C=C/c4c(C)cc(C(=O)N5CCC(C)(O)CC5)cc4C)CC3)C(=O)N2)ccc1C(F)(F)F [Compound 1193, 8-{(E)-2-[4-(4-hydroxy-4-methyl-piperidine-1-carbonyl)-2,6-dimethyl-phenyl]-ethenesulfonyl}-2-(3-methyl-4-trifluoromethyl-phenyl)-1,3,8-triaza-spiro[4.5]dec-1-en-4-one] | 86% |
| Cc1cc(C(=O)N2CCC(C)(O)CC2)cc(C)c1/C=C/S(=O)(=O)N1CCC2(CC1)N=C(c1ccc3c(c1)OCO3)NC2=O [Compound 1194, 2-benzo[1,3]dioxol-5-yl-8-{(E)-2-[4-(4-hydroxy-4-methyl-piperidine-1-carbonyl)-2,6-dimethyl-phenyl]-ethenesulfonyl}-1,3,8-triaza-spiro[4.5]dec-1-en-4-one] | 62% |
| Cc1cc(C(=O)N2CCC(C)(O)CC2)cc(C)c1/C=C/S(=O)(=O)N1CCC2(CC1)N=C(c1ccc(C(F)(F)C(F)(F)F)cc1)NC2=O [Compound 1195, 8-{(E)-2-[4-(4-hydroxy-4-methyl-piperidine-1-carbonyl)-2,6-dimethyl-phenyl]-ethenesulfonyl}-2-(4-pentafluoroethyl-phenyl)-1,3,8-triaza-spiro[4.5]dec-1-en-4-one] | 82% |
| Cc1cc(C(=O)N2CCC(C)(O)CC2)cc(C)c1/C=C/S(=O)(=O)N1CCC2(CC1)N=C(c1cccc(C(F)(F)C(F)(F)F)c1)NC2=O [Compound 1196, 8-{(E)-2-[4-(4-hydroxy-4-methyl-piperidine-1-carbonyl)-2,6-dimethyl-phenyl]-ethenesulfonyl}-2-(3-pentafluoroethyl-phenyl)-1,3,8-triaza-spiro[4.5]dec-1-en-4-one] | 76% |
